test system: Pseudoperonospora cubensis (PSPECU); experiment: Droplet application on cucumber leaf, growth chamber (Examples 5a-d); assay type: in vivo; settings: substance 100 ppm with mancozeb 200 ppm vs mancozeb alone; Table 9
Protocol: Examples 5a through 5d were conducted in growth chambers on cucumber plants. Cucumbers (Cucumis sativus cv Bush Pickle Hybrid #901261) were grown from seed in 5 cm by 5 cm pots containing MetroMix™ growth medium (Scotts, Marysville, Ohio) and maintained in a glasshouse with supplementary light sources to provide a 14 hour photoperiod at 24-29° C. until the plants were in the 2-3 true leaf stage of growth and the oldest leaf was fully expanded.
For examples 5a through 5d, described below, samples of mancozeb formulated as Dithane DG NT were dissolved in water to form a ½×dilution series. Mancozeb rates were 400, 200, 100 and 50 ppm. Samples of various aldehydes, amino acids, carboxylic acids, amines and alcohols were dissolved in acetone and then mixed with aqueous solutions of mancozeb. Attractant rates in the dilute solutions were 100, 200, 500 or 1000 ppm, depending on the experiment.
Mixtures of attractant or attractant derivative plus mancozeb or mancozeb alone were applied to cucumber as a row of 5 or 7.5 ul droplets using a multi-channel pipetting device. Five droplets spaced 1 cm apart were placed along the mid-rib of the expanded cucumber leaf with the first droplet being positioned at least 1-cm from the leaf apex. Each treatment was replicated three or four times, depending on the experiment. Two to three hours after applying the treatments when droplets had dried, plants were inoculated with a suspension of sporangia of a Pseudoperonospora cubensis (PSPECU) and incubated as described in the methods for sprayed tests. When symptoms were well developed in untreated check plants, the experiment was assessed visually using a template 2 cm wide and 7 cm long with the long axis centered on the mid-rib of the treated leaf.
Reduction in percent disease was calculated by subtracting percent disease on plants receiving a mixture of mancozeb plus the specified test substance from percent disease on plants receiving mancozeb alone. The results for examples 5a-5d are shown below in Tables 7-10; the reduction in percent disease was indicated as follows: […]

| SMILES | Reduction in % Disease |
| --- | --- |
| CCCCC=O [Valeraldehyde] | x (0-20% reduction in percent disease) |
| CC(C)=CC=O [3-methyl-2-butenaldehyde] | x (0-20% reduction in percent disease) |
| CC(C)C=O [Isobutyraldehyde] | x (0-20% reduction in percent disease) |
| CCC(C=O)CC [2-ethylbutyraldehyde] | x (0-20% reduction in percent disease) |
| CCC(C)C=O (stereo not drawn) [2-methylbutyraldehyde] | x (0-20% reduction in percent disease) |

same assay, conditions: substance 100 ppm with mancozeb 200 ppm vs mancozeb alone; Table 10

| SMILES | Reduction in % Disease |
| --- | --- |
| CCC(C)C(C)=O (stereo not drawn) [3-methyl-2-pentanone] | x (0-20% reduction in percent disease) |
| CC(=O)CC(C)C [4-methyl-2-pentanone] | x (0-20% reduction in percent disease) |

same assay, conditions: substance 200 ppm with mancozeb 50 ppm vs mancozeb alone; cucumber

| SMILES | Reduction in % Disease |
| --- | --- |
| CC(C)CC(=O)O [Isovaleric acid] | xx (21-35% reduction in percent disease) |
| N[C@@H](CCC(=O)O)C(=O)O [Glutamic acid] | xx (21-35% reduction in percent disease) |
| CC(C)CCN [Isoamyl amine] | xxx (36-50% reduction in percent disease) |
| CC(C)CCC(=O)O [Isocaproic acid] | xxx (36-50% reduction in percent disease) |
| CC(C)CO [Isobutanol] | x (0-20% reduction in percent disease) |
| N[C@@H](CC(=O)O)C(=O)O [Aspartic acid] | xx (21-35% reduction in percent disease) |
| CC(C)CCO [Isoamyl alcohol] | xx (21-35% reduction in percent disease) |

same assay, conditions: substance 500 ppm with mancozeb 200 ppm vs mancozeb alone; Table 8

| SMILES | Reduction in % Disease |
| --- | --- |
| CCCCC=O [Valeraldehyde] | x (0-20% reduction in percent disease) |
| N[C@@H](CCC(=O)O)C(=O)O [Glutamic acid] | x (0-20% reduction in percent disease) |
| CC(C)=CC=O [3-methyl-2-butenaldehyde] | x (0-20% reduction in percent disease) |
| CC(C)CCC(=O)O [Isocaproic acid] | x (0-20% reduction in percent disease) |
| CC(C)CO [Isobutanol] | x (0-20% reduction in percent disease) |
| CCC(C)C=O (stereo not drawn) [2-methylbutyraldehyde] | x (0-20% reduction in percent disease) |

same assay, conditions: substance 1000 ppm with mancozeb 50 ppm vs mancozeb alone; cucumber

| SMILES | Reduction in % Disease |
| --- | --- |
| CC(C)CC(=O)O [Isovaleric acid] | xx (21-35% reduction in percent disease) |
| N[C@@H](CCC(=O)O)C(=O)O [Glutamic acid] | x (0-20% reduction in percent disease) |
| CC(C)CCN [Isoamyl amine] | xxx (36-50% reduction in percent disease) |
| CC(C)CCC(=O)O [Isocaproic acid] | xxx (36-50% reduction in percent disease) |
| CC(C)CO [Isobutanol] | xxxx (>50% reduction in percent disease) |
| N[C@@H](CC(=O)O)C(=O)O [Aspartic acid] | xx (21-35% reduction in percent disease) |
| CC(C)CCO [Isoamyl alcohol] | x (0-20% reduction in percent disease) |

same assay, conditions: substance alone 100 ppm; untreated check 92%; Table 9

| SMILES | % disease at 100 ppm of substance alone [%] |
| --- | --- |
| CCCCC=O [Valeraldehyde] | 93 |
| CC(C)=CC=O [3-methyl-2-butenaldehyde] | 100 |
| CC(C)C=O [Isobutyraldehyde] | 97 |
| CCC(C=O)CC [2-ethylbutyraldehyde] | 65 |
| CCC(C)C=O (stereo not drawn) [2-methylbutyraldehyde] | 98 |

same assay, conditions: substance alone 100 ppm; untreated check 100%; Table 10

| SMILES | % disease at 100 ppm of substance alone [%] |
| --- | --- |
| CCC(C)C(C)=O (stereo not drawn) [3-methyl-2-pentanone] | 100 |
| CC(=O)CC(C)C [4-methyl-2-pentanone] | 93 |

same assay, conditions: substance alone 500 ppm; untreated check 91%

| SMILES | % disease at 500 ppm of substance alone [%] |
| --- | --- |
| CCCCC=O [Valeraldehyde] | 94 |
| N[C@@H](CCC(=O)O)C(=O)O [Glutamic acid] | 90 |
| CC(C)=CC=O [3-methyl-2-butenaldehyde] | 81 |
| CC(C)CCC(=O)O [Isocaproic acid] | 88 |
| CC(C)CO [Isobutanol] | 95 |
| CCC(C)C=O (stereo not drawn) [2-methylbutyraldehyde] | 74 |

same assay, conditions: substance alone 1000 ppm; untreated check 100%

| SMILES | % disease at 1000 ppm of substance alone [%] |
| --- | --- |
| CC(C)CC(=O)O [Isovaleric acid] | 100 |
| N[C@@H](CCC(=O)O)C(=O)O [Glutamic acid] | 100 |
| CC(C)CCN [Isoamyl amine] | 100 |
| CC(C)CCC(=O)O [Isocaproic acid] | 100 |
| CC(C)CO [Isobutanol] | 100 |
| N[C@@H](CC(=O)O)C(=O)O [Aspartic acid] | 100 |
| CC(C)CCO [Isoamyl alcohol] | 100 |

test system: Plasmopara viticola (PLASVI); experiment: not given; assay type: in vivo; settings: fungicide with Formulation I at 100 ppm; Table 19

| SMILES | Reduction in percent disease PLASVI |
| --- | --- |
| O=[N+]([O-])c1cc(C(F)(F)F)c(Cl)c([N+](=O)[O-])c1Nc1ncc(C(F)(F)F)cc1Cl [Fluazinam, reference compound] | xxx (36-50% reduction in percent disease) |
| CON=C(C(=O)OC)c1ccccc1CON=C(C)c1cccc(C(F)(F)F)c1 [Trifloxystrobin, reference compound] | x (0-20% reduction in percent disease) |

same assay, conditions: substance 500 ppm with mancozeb 6.25 ppm (Dithane DGNT), foliar spray, inoculated 2 to 3 hours after treatment

| SMILES | Reduction in percent disease PLASVI |
| --- | --- |
| CCCCC=O [Valeraldehyde] | x (0-20% reduction in percent disease) |
| N[C@@H](CCC(=O)O)C(=O)O [Glutamic acid] | xxx (36-50% reduction in percent disease) |
| CC(C)=CC=O [3-methyl-2-butenaldehyde] | xxx (36-50% reduction in percent disease) |
| CC(C)CCC(=O)O [Isocaproic acid] | xxx (36-50% reduction in percent disease) |
| CC(C)CO [Isobutanol] | xxxx (>50% reduction in percent disease) |
| CCC(C)C=O (stereo not drawn) [2-methylbutyraldehyde] | x (0-20% reduction in percent disease) |

same assay, conditions: substance alone 500 ppm; untreated check 95

| SMILES | % disease at 500 ppm of substance alone PLASVI [%] |
| --- | --- |
| CCCCC=O [Valeraldehyde] | 95 |
| N[C@@H](CCC(=O)O)C(=O)O [Glutamic acid] | 93 |
| CC(C)=CC=O [3-methyl-2-butenaldehyde] | 95 |
| CC(C)CCC(=O)O [Isocaproic acid] | 93 |
| CC(C)CO [Isobutanol] | 78 |
| CCC(C)C=O (stereo not drawn) [2-methylbutyraldehyde] | 95 |

test system: Phytophthora infestans (PHYTIN); experiment: not given; assay type: in vivo; settings: aldehyde derivative 100 ppm with mancozeb; Table 17

| SMILES | Reduction in percent disease PHYTIN |
| --- | --- |
| CC(C)C/C=N/N1CCCCC1 [Compound Z] | xx (21-35% reduction in percent disease) |
| CC(C)CC=NOCc1ccccc1 [Compound Y] | x (0-20% reduction in percent disease) |
| CC(C)C/C=N/N(C)c1ccccc1 [Compound AA] | x (0-20% reduction in percent disease) |
| CC(C)C/C=N/N(Cc1ccccc1)Cc1ccccc1 [Compound W] | xx (21-35% reduction in percent disease) |
| C=CCON=CCC(C)C [Compound X] | xx (21-35% reduction in percent disease) |
| CC(C)C/C=N/NC(=O)c1ccc(O)cc1 [Compound V] | xx (21-35% reduction in percent disease) |

same assay, conditions: fungicide with Formulation I at 100 ppm; Table 19

| SMILES | Reduction in percent disease PHYTIN |
| --- | --- |
| O=[N+]([O-])c1cc(C(F)(F)F)c(Cl)c([N+](=O)[O-])c1Nc1ncc(C(F)(F)F)cc1Cl [Fluazinam, reference compound] | xxx (36-50% reduction in percent disease) |
| CON=C(C(=O)OC)c1ccccc1CON=C(C)c1cccc(C(F)(F)F)c1 [Trifloxystrobin, reference compound] | x (0-20% reduction in percent disease) |

same assay, conditions: substance 500 ppm with mancozeb 25 ppm (Dithane DGNT), foliar spray, inoculated 2 to 3 hours after treatment

| SMILES | Reduction in percent disease PHYTIN |
| --- | --- |
| CCCCC=O [Valeraldehyde] | x (0-20% reduction in percent disease) |
| N[C@@H](CCC(=O)O)C(=O)O [Glutamic acid] | xx (21-35% reduction in percent disease) |
| CC(C)=CC=O [3-methyl-2-butenaldehyde] | x (0-20% reduction in percent disease) |
| CC(C)CCC(=O)O [Isocaproic acid] | xxx (36-50% reduction in percent disease) |
| CC(C)CO [Isobutanol] | xxx (36-50% reduction in percent disease) |
| CCC(C)C=O (stereo not drawn) [2-methylbutyraldehyde] | x (0-20% reduction in percent disease) |

same assay, conditions: substance alone 500 ppm; untreated check 95

| SMILES | % disease at 500 ppm of substance alone PHYTIN [%] |
| --- | --- |
| CCCCC=O [Valeraldehyde] | 95 |
| N[C@@H](CCC(=O)O)C(=O)O [Glutamic acid] | 95 |
| CC(C)=CC=O [3-methyl-2-butenaldehyde] | 95 |
| CC(C)CCC(=O)O [Isocaproic acid] | 95 |
| CC(C)CO [Isobutanol] | 95 |
| CCC(C)C=O (stereo not drawn) [2-methylbutyraldehyde] | 95 |

Source: US20090246293A1 (priority 2008, published 2009)
